Data published in ChEMBL document CHEMBL4043249, “Discovery of potent antiviral (HSV-1) quinazolinones and initial structure-activity relationship studies” (Bioorg Med Chem Lett, 2017).
Activity calls are given as the source filed them. The rule behind the calls is not given here.

Experiments:
[1] = system: Human alphaherpesvirus 1; assay: Anti-viral activity against Herpes simplex virus-1 harboring EGFP infected in iPSC-derived neurons assessed as viable cells at 10 mM treated 2 hrs post infection measured after 72 hrs by Alexa fluor 488 staining based flow cytometric analysis (reference value: 17.8%); assay type: functional
[2] = system: Human alphaherpesvirus 1; assay: Anti-viral activity against Herpes simplex virus-1 harboring EGFP infected in iPSC-derived neurons assessed as early apoptotic cells at 10 mM treated 2 hrs post infection measured after 72 hrs by Alexa fluor 488 staining based flow cytometric analysis (reference value: 13.2%); assay type: functional
[3] = system: Human alphaherpesvirus 1; assay: Anti-viral activity against Herpes simplex virus-1 harboring EGFP infected in iPSC-derived neurons assessed as late apoptotic cells at 10 mM treated 2 hrs post infection measured after 72 hrs by Alexa fluor 488 staining based flow cytometric analysis (reference value: 65.7%); assay type: functional
[4] = system: Human alphaherpesvirus 1; assay: Anti-viral activity against Herpes simplex virus-1 harboring EGFP infected in iPSC-derived neurons assessed as necrotic cells at 10 mM treated 2 hrs post infection measured after 72 hrs by Alexa fluor 488 staining based flow cytometric analysis (reference value: 3.33%); assay type: functional
[5] = system: Human alphaherpesvirus 1; assay: Anti-viral activity against Herpes simplex virus-1 harboring EGFP infected in iPSC-derived neurons assessed as viable cells at 50 mM treated 2 hrs post infection measured after 72 hrs by Alexa fluor 488 staining based flow cytometric analysis (reference value: 17.8%); assay type: functional
[6] = system: Human alphaherpesvirus 1; assay: Anti-viral activity against Herpes simplex virus-1 harboring EGFP infected in iPSC-derived neurons assessed as early apoptotic cells at 50 mM treated 2 hrs post infection measured after 72 hrs by Alexa fluor 488 staining based flow cytometric analysis (reference value: 13.2%); assay type: functional
[7] = system: Human alphaherpesvirus 1; assay: Anti-viral activity against Herpes simplex virus-1 harboring EGFP infected in iPSC-derived neurons assessed as late apoptotic cells at 50 mM treated 2 hrs post infection measured after 72 hrs by Alexa fluor 488 staining based flow cytometric analysis (reference value: 65.7%); assay type: functional
[8] = system: Human alphaherpesvirus 1; assay: Anti-viral activity against Herpes simplex virus-1 harboring EGFP infected in iPSC-derived neurons assessed as necrotic cells at 50 mM treated 2 hrs post infection measured after 72 hrs by Alexa fluor 488 staining based flow cytometric analysis (reference value: 3.33%); assay type: functional
[9] = system: Human alphaherpesvirus 1; assay: Anti-viral activity against Herpes simplex virus-1 harboring EGFP infected in iPSC-derived neurons assessed as reduction in ICP0 expression at 50 uM treated 2 hrs post infection measured after 72 hrs by Alexa fluor 488 staining based flow cytometric analysis; assay type: functional
[10] = system: Human alphaherpesvirus 1; assay: Anti-viral activity against Herpes simplex virus-1 harboring EGFP infected in iPSC-derived neurons assessed as reduction in ICP0 expression treated 2 hrs post infection measured after 72 hrs by Alexa fluor 488 staining based flow cytometric analysis; assay type: functional
[11] = Cytotoxicity against human induced pluripotent stem cell-derived neurons assessed as effect on cell viability after 24 hrs by live/dead fixable aqua dead cell staining based assay; conditions: induced pluripotent stem cell-derived neuron
[12] = Cytotoxicity against human induced pluripotent stem cell-derived neurons assessed as morphological changes after 48 to 72 hrs by live/dead fixable aqua dead cell staining based assay; conditions: induced pluripotent stem cell-derived neuron
[13] = system: Human alphaherpesvirus 1; assay: Anti-viral activity against Herpes simplex virus-1 harboring EGFP infected in iPSC-derived neurons assessed as reduction in ICP0 expression at 10 to 50 uM treated 2 hrs post infection measured after 72 hrs by Alexa fluor 488 staining based flow cytometric analysis; assay type: functional
[14] = system: Vero; assay: Cytotoxicity against African green monkey Vero cells assessed as effect on cell viability at 10 to 1000000 nM; assay type: cell-based; conditions: chlorocebus sabaeus, 1000 µM
[15] = system: NSC; assay: Cytotoxicity against NSC (unknown origin) assessed as effect on cell viability at 10 to 1000000 nM; assay type: cell-based; conditions: 1000 µM
[16] = system: Neuron; assay: Cytotoxicity against neurons (unknown origin) assessed as effect on cell viability at 10 to 1000000 nM; assay type: cell-based; conditions: 1000 µM
[17] = system: Human alphaherpesvirus 1; assay: Anti-viral activity against Herpes simplex virus-1 harboring EGFP infected in iPSC-derived neurons assessed as reduction in ICP0 expression at 10 uM treated 2 hrs post infection measured after 72 hrs by Alexa fluor 488 staining based flow cytometric analysis; assay type: functional
[18] = Induction of heterochromatinization in Induced pluripotent stem cell-derived neuron (unknown origin) infected with HSV-1 assessed as increase in H3K27 trimethylation at ICP4 gene by chromatin immunoprecipitation based RT-PCR analysis

Nc1nc2c(ncn2COCCO)c(=O)[nH]1 [ACYCLOVIR]
Activity [1]: 89.6%
Activity [2]: 7.92%
Activity [3]: 1.36%
Activity [4]: 1.13%
Activity [5]: 92.6%
Activity [6]: 6.22%
Activity [7]: 0.44%
Activity [8]: 0.76%

COc1ccc(-n2c(-c3ccc(OCc4ccccc4)cc3)nc3ccccc3c2=O)cc1
Activity [9]: Active
Activity [10]: Active
Activity [11]: Toxic
Activity [12]: Toxic

CCCCCCn1c(-c2ccc(OCc3ccccc3)cc2)nc2ccccc2c1=O
Activity [10]: inactive

O=c1c2ccccc2nc(-c2ccc(OCc3ccc(Br)cc3)cc2)n1-c1ccc(Br)cc1
Activity [13]: Active

COc1ccc(-n2c(-c3ccc(OCc4ccc(Br)cc4)cc3)nc3ccccc3c2=O)cc1
Activity [1]: 91.6%
Activity [2]: 3.18%
Activity [3]: 4.64%
Activity [4]: 0.6%
Activity [5]: 88.9%
Activity [6]: 3.36%
Activity [7]: 5.03%
Activity [8]: 2.91%
Activity [13]: Active
Activity [14]: Toxic
Activity [15]: Toxic
Activity [16]: Toxic

COc1ccc(-n2c(-c3ccc(Oc4ccccc4)cc3)nc3ccccc3c2=O)cc1
Activity [13]: inactive

O=c1c2ccccc2nc(-c2ccc(Br)cc2)n1-c1ccc(Br)cc1
Activity [10]: Active

COc1ccc(-n2c(-c3ccc(Oc4ccc(Cl)cc4)cc3)nc3ccccc3c2=O)cc1
Activity [13]: inactive

COc1ccc(Oc2ccc(-c3nc4ccccc4c(=O)n3-c3ccc(OC)cc3)cc2)cc1
Activity [13]: inactive

COc1ccc(-n2c(-c3ccc(Nc4ccccc4)cc3)nc3ccccc3c2=O)cc1
Activity [13]: inactive

O=c1c2ccccc2nc(-c2ccc(OCc3cccc(Br)c3)cc2)n1-c1ccc(Br)cc1
Activity [13]: Active

COc1ccc(-c2nc3ccccc3c(=O)n2-c2ccc(Br)cc2)cc1
Activity [10]: Active

COc1ccc(-n2c(-c3ccc(Oc4ccc(OC(F)(F)F)cc4)cc3)nc3ccccc3c2=O)cc1
Activity [13]: inactive

O=c1[nH]c(-c2ccc(OCc3ccccc3)cc2)nc2ccccc12
Activity [10]: inactive

O=c1c2ccccc2nc(-c2ccc(OCc3ccccc3)cc2)n1-c1ccc(Br)cc1
Activity [9]: Active
Activity [17]: Active
Activity [10]: Active
Activity [11]: Toxic
Activity [12]: Toxic
Activity [18]: Non-Toxic

COc1ccc(-n2c(-c3ccc(OCc4cccc(Br)c4)cc3)nc3ccccc3c2=O)cc1
Activity [1]: 90.1%
Activity [2]: 3.24%
Activity [3]: 6.1%
Activity [4]: 0.59%
Activity [5]: 82%
Activity [6]: 3.76%
Activity [7]: 9.96%
Activity [8]: 4.31%
Activity [13]: Active
Activity [14]: Toxic
Activity [15]: Toxic
Activity [16]: Toxic
